Measurements: PMC6434189, “Peperomin E and its orally bioavailable analog induce oxidative stress-mediated apoptosis of acute myeloid leukemia progenitor cells by targeting thioredoxin reductase” (Redox Biology, 2019)
Like-named read-outs stand apart in the source and are kept apart here.

How the values were obtained:
[1] = Pharmacokinetic study of DMAPE in rats; format: in vivo, Sprague–Dawley rats; conditions: for MRT last: read-out: MRT 0-t; for MRT inf: read-out: MRT 0-∞
Source text: The UFLC-MS/MS system consisted of a Prominence™ UFLC system (Shimadzu, Kyoto, Japan) coupled with a QTRAP™ 5500 MS/MS system (Applied Biosystems/MDS SCIEX, Foster City, CA, USA) and controlled by the Analyst 1.5.2 software. MS‐grade methanol and acetonitrile were purchased from Merck (Darmstadt, Germany). Ultra‐pure water was generated using a MilliQ™ direct water purification system (Merck–Millipore, Billerica, MA, USA). The mass spectra and chromatographic conditions, method validations, standard and sample preparation for simultaneous determination of DMAPE and its parent drug PepE in rat plasma are provided in the Additional method in Supplementary Materials.
Male Sprague–Dawley rats weighing 200 ± 20 g were supplied by the Qinglongshan Experimental Animal Breeding Company (Nanjing, China). The experiment protocol was approved by the Animal Ethics Committee of Nanjing University of Chinese Medicine (Nanjing, China). The rats were housed under controlled environmental conditions (temperature 25 ± 2 °C, relative humidity 50 ± 10%) with free access to standard laboratory food and water. Before drug administration, the rats were randomly divided into two groups (eight rats per group) and fasted for 12 h with access to water. DMAPE phosphate salt aqueous solution was i. g. (50 mg/kg) or i. v. (50 mg/kg) administrated. Blood samples were collected from the tail vein into heparinized Eppendorf tubes using lithium heparin‐containing microvettes. The plasma was obtained by centrifugation of the blood at 5000 rpm for 10 min and then frozen at −20 °C until analysis. Pharmacokinetic parameters were calculated using the DAS 2.1.1 software (Pharmacological Society of China, China) using non-compartmental analysis.

[2] = target: T1, TrxR1 in KG-1a CD34+ cells (Homo sapiens, UniProt Q16881); assay: Imaging TrxR1 activity in cells with TR-green; format: cell-based; conditions: 2 and 6 μM, dose-dependent
T1 construct: image TrxR activity in intact isolated KG-1a CD34^+ cells; endogenous in cells; host or cells: KG-1a CD34+ cells
T1 sequence (Q16881 1-499 isoform Q16881-5): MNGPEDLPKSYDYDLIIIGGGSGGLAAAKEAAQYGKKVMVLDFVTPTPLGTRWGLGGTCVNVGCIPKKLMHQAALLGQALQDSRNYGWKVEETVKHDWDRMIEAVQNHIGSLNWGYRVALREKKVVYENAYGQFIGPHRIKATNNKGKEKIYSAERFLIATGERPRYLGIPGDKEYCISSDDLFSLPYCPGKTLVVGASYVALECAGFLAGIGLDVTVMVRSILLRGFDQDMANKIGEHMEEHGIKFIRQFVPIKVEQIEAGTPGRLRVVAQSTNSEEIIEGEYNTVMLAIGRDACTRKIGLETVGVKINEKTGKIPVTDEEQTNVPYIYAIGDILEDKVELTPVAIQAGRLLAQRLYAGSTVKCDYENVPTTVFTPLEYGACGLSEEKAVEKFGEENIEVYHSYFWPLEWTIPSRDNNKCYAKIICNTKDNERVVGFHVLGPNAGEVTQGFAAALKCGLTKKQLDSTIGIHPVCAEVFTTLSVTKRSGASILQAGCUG
Description: The specific fluorescence probe of TrxR – TR-green was employed to image TrxR activity in intact isolated KG-1a CD34^+ cells using previously published methods. Briefly, KG-1a CD34^+ cells (5 × 10^5) were incubated with 2 μM and 6 μM PepE or DMAPE (Previously reported TrxR1 inhibitor Parthenolide was used as the positive control, 0.1% DMSO was used as the negative control) in 6-well plates for 12 h, then 10 μM TR-green was added to each plate and incubated at 37 °C for 3 h. Fluorescence and brightfield images were captured using an inverted fluorescence microscope IX-73 (Olympus) with Metamorph software (Molecular Devices).

[3] = design: method as in earlier work; conditions: within 24 h; cited from earlier work
[4] = target: T2, TrxR1 nSec498 (Homo sapiens, UniProt Q16881); assay: BLI binding assay, TrxR1 without Sec498; conditions: NADPH reduced TrxR1 nSec498 0.9 μM
T2 construct: protein fragment, without selenocysteine residue; purchased Abcam ab168011
T2 sequence (Q16881 11-497 isoform Q16881-5): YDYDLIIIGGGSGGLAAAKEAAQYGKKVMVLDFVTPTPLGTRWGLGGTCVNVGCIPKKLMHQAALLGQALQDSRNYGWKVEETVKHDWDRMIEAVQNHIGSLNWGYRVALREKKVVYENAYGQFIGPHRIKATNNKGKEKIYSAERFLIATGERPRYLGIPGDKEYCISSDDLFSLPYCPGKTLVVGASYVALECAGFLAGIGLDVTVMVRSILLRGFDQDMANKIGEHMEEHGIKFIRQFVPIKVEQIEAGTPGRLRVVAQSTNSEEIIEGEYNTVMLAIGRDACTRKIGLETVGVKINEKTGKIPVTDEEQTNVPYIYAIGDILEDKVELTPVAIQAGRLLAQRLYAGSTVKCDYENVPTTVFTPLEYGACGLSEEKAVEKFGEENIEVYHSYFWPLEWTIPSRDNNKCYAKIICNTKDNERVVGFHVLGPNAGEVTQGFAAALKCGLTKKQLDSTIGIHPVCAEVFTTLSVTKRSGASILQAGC
Description: The binding kinetics of PepE or PepA to purified recombinant proteins were determined using BLI on an Octet RED 96 system (ForteBio, Shanghai, China) following the manufacturer's protocol. All interaction analyses were performed at 25 °C in PBS with 0.2% DMSO. Purified recombinant proteins (0.9 μM, the TrxR1 full length and TrxR1 protein fragment were pre-reduced by 400 μM of NADPH before test) were pre-labeled with biotin using […] (Abcam) following the manufacturer's instruction. Loading of the Dip and Read Super Streptavidin (SSA) Biosensors (ForteBio) were conducted by exposing biotinylated proteins to biosensor tips for 2 h. The 96-well microplates used in the Octet were filled with 200 μL sample or buffer per well and agitated at 1000 rpm. The loaded biosensors were washed in buffer for 600 s and transferred to wells containing PepE at concentrations of 0.625, 1.25, 2.5, 5, and 10 μM or PepA at concentrations of 1.25, 2.5, 5, 10 and 20 μM, respectively, in the buffer. […] Reference measurements were conducted using the buffer instead of PepE (or PepA). A parallel set of SA unloaded biosensors was prepared to act as a control. […] Kinetic parameters (Kon and Kdis) and affinity (KD) were determined from a global fit to a 1:1 binding model of the data between proteins and PepE using Octet software (ForteBio).

[5] = male, Sprague-Dawley, po, rat plasma, DMAPE 50 mg/kg intragastric
[6] = male, Sprague-Dawley, rat, plasma, po, 50 mg/kg, rat plasma, DMAPE 50 mg/kg intragastric
[7] = male, Sprague-Dawley, rat plasma, DMAPE 50 mg/kg intravenous

Compound | AUC(0-inf) [1, 5] [ng·h/mL] | AUC(0-t) [1, 5] [ng·h/mL] | Cmax [1, 5] [ng/mL] | half-life [1, 5] [h] | MRT last [1, 5] [h] | MRT inf [1, 5] [h] | bioavailability ([1]; male, Sprague-Dawley, rat, plasma, oral, 50 mg/kg, rat, DMAPE 50 mg/kg intragastric vs intravenous, read-out: Bioavailability, F) [%] | Tmax [1, 6] [h] | AUC(0-inf) [1, 7] [ng·h/mL] | AUC(0-t) [1, 7] [ng·h/mL] | Cmax [1, 7] [ng/mL] | clearance [1, 7] [mL/min/kg] | half-life [1, 7] [h] | MRT last [1, 7] [h] | MRT inf [1, 7] [h] | CL ([1]; rat plasma, DMAPE 50 mg/kg intragastric) [mL/min/kg] | TR-green fluorescence intensities (cellular TrxR1 activity) [2] | stability in the cell cultural media (without cells) [3] | Tmax ([1]; male, Sprague-Dawley, rat, plasma, iv, 50 mg/kg, rat plasma, DMAPE 50 mg/kg intravenous) [h] | Kd [4] [µM]
COc1cc(C(c2cc(OC)c3c(c2)OCO3)[C@@H]2COC(=O)[C@H]2CN(C)CCO)cc2c1OCO2 [DMAPE, (2S,3S)-6-Methyl (hydroxyethyl) amino-2,6-dihydropeperomin E] | 25400 ± 8950 | 25200 ± 8960 | 5760 ± 2510 | 4.26 ± 1.63 | 4.9 ± 0.42 | 5.29 ± 0.32 | 85 | ≤ 0.85 | 30000 ± 7010 | 29900 ± 7070 | 21700 ± 3590 | 29 | 4.33 ± 1.77 | 2.61 ± 0.86 | 2.73 ± 0.85 | 35.7 ± 10.2 | significant decrease | stable |  | 
C=C1C(=O)OC[C@H]1C(c1cc(OC)c2c(c1)OCO2)c1cc(OC)c2c(c1)OCO2 [PepE, Peperomin E] | 10700 ± 2930 | 10600 ± 2930 | 2300 ± 270 | 7.02 ± 1.3 | 7.32 ± 0.82 | 7.75 ± 0.74 |  | ≤ 0.85 | 11400 ± 3520 | 11300 ± 3520 | 8630 ± 2040 | 77.5 | 8.89 ± 4.8 | 3.91 ± 1.4 | 4.64 ± 1.88 |  | significant decrease |  | 0.21 ± 0.17 | 11.9
